The source of these data is patent publication US10077261B2, “Imidazolin-5-one derivative useful as FASN inhibitors for the treatment of cancer” (Janssen Pharmaceutica NV, priority 2012, dated 2018).

Test [1] deals with A2780 ovarian cells. Put plainly: A2780 ovarian cell proliferation assay in lipid reduced medium, with palmitate (MTT). The conditions noted are these: Homo sapiens, A2780, 96 h; read-out: pIC50 A2780 Ovarian Cell, With Palmitate (converted). It counts as cell-based. An outline of the steps: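 In this palmitate-supplemented format, compound dilutions (30 μM down to 0.01 μM) are added to cells in lipid-reduced serum with 25 μM palmitate, 0.2% fatty-acid-free BSA and 0.25% ethanol. After four days (96 h) MTT absorbance at 544 nm is recorded and fitted by minimum sum of squares.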

Test [2] concerns the target T1, hFASN enzyme (full length) (Homo sapiens, UniProt P49327).
T1 construct: 10 μL hFASN enzyme (full length, 300 ng, purified in house); made in house
Put plainly: Fatty Acid Synthase (FASN) inhibition scintillation proximity assay. It counts as biochemical. The conditions noted are these: for inhibition at 10 µM: read-out: Human FASN % inhibition @ 10 μM, 10 μM test compound; for IC50: read-out: Human FASN pIC50 (converted). The gist of the method: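 Read-out relies on hydrophobic ³H-palmitate product, formed from ³H-acetyl-CoA and malonyl-CoA, binding streptavidin imaging beads, measured at 610±20 nm after at least 24 h. Full-length enzyme (300 ng) in phosphate buffer pH 7.5 with DTT; eight compound concentrations, 0.01–30 μM.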

Test [3] concerns A2780 ovarian cells. Put plainly: A2780 ovarian cell proliferation assay in lipid reduced medium, without palmitate (MTT). It counts as cell-based. The conditions noted are these: Homo sapiens, A2780, 96 h; read-out: pIC50 A2780 Ovarian Cell, Without Palmitate (converted).
The test system of test [4] is LNCaP-Vancouver prostate cells. The test is described as follows: In vitro LNCaP Vancouver prostate cell proliferation assay in lipid reduced medium. It counts as cell-based. The conditions noted are these: read-out: pIC50 LNCaP_Vancouver prostate cell (converted).
For test [5], the system named is PC-3M-Luc-C6 prostate cells. The test is described as follows: In vitro PC-3M-Luc-C6 prostate cell proliferation assay in lipid reduced medium. It counts as cell-based. The conditions noted are these: 96 h, read-out: pIC50 PC-3M-Luc-C6 prostate cell (converted).
Test [6] deals with Fatty Acid Synthase Keto-reductase Domain (FASN KR) (Homo sapiens, UniProt P49327). The test is described as follows: Fatty Acid Synthase keto-reductase domain (FASN KR) inhibition, NADPH oxidation at 340 nm.
Procedure: After 20 minutes incubation at room temperature the plate was measured again (T2).
The decrease in absorbance was calculated as (Absorbance before incubation T1)−(Absorbance following incubation T2).
A plot of Controlmin versus test compound concentration was fitted to a 4-parameter logistic curve using a non-linear least squares regression method.

As usually defined, the inhibition is the drop in the measured response relative to a control, in per cent.

T1 sequence (P49327 whole entry): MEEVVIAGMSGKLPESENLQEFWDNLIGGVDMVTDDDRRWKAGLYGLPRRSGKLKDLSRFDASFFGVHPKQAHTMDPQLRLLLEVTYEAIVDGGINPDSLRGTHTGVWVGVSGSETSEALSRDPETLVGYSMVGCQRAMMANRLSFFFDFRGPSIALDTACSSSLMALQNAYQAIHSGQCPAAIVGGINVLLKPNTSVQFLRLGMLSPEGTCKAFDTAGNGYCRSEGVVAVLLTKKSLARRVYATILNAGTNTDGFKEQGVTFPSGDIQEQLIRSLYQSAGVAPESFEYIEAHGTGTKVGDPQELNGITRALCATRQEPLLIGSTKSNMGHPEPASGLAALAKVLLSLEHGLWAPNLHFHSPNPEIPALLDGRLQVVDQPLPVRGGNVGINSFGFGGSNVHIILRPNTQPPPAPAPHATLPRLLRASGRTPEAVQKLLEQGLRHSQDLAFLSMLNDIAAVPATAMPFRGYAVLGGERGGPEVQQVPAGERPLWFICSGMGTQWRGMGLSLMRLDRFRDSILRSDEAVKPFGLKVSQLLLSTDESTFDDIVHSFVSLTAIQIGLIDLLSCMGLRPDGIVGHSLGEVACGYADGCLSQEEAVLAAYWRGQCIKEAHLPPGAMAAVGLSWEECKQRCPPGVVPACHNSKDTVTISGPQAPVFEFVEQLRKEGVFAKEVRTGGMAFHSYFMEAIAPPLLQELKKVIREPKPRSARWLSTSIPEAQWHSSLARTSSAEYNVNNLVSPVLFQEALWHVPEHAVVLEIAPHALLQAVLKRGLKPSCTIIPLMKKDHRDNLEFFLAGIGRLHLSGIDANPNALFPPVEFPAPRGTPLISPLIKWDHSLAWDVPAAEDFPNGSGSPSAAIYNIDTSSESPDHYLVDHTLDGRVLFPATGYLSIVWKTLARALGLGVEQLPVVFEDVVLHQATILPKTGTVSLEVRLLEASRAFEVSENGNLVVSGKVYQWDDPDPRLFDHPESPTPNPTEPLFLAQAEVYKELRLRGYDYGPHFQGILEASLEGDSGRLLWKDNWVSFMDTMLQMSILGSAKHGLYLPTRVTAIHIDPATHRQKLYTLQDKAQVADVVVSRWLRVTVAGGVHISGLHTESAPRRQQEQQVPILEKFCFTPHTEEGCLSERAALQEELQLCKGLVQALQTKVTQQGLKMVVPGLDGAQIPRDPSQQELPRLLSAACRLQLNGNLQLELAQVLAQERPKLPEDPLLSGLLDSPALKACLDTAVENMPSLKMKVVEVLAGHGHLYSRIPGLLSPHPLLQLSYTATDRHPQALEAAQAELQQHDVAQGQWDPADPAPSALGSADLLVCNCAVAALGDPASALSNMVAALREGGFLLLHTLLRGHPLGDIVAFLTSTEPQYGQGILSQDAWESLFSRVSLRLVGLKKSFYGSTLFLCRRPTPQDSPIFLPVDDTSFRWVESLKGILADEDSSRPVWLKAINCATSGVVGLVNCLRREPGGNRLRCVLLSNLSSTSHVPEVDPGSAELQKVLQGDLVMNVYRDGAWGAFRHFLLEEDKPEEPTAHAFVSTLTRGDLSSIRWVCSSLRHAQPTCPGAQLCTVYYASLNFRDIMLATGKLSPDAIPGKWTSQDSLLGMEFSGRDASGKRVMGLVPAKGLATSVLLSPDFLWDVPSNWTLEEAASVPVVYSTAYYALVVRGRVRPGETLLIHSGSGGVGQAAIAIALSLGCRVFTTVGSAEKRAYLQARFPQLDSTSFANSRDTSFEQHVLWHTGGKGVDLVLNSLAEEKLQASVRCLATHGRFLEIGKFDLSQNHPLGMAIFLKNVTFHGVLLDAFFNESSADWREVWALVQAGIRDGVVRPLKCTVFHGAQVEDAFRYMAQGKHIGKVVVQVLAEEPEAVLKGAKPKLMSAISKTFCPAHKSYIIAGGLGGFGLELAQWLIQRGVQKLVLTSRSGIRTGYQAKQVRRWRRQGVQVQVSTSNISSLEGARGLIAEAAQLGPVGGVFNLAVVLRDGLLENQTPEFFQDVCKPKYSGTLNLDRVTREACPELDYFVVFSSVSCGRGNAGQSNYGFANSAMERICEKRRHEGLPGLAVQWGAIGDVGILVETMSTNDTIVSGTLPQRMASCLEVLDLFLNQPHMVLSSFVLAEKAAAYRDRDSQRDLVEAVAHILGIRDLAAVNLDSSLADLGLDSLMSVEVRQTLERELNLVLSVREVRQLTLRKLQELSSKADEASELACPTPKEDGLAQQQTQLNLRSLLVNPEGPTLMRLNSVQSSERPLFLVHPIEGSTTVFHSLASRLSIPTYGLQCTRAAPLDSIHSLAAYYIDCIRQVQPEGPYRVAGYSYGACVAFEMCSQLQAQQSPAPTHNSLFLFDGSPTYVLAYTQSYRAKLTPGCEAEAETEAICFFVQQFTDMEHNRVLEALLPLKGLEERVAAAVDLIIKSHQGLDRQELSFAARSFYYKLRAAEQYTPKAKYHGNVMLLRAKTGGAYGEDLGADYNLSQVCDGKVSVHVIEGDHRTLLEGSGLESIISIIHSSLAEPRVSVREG
Sequence of Fatty Acid Synthase Keto-reductase Domain (FASN KR) (P49327 whole entry, the tested form may be a part): as the sequence (P49327 whole entry) above

On to `Cc1cc(-c2ccc3cc(Cl)cnc3c2)ccc1C1=NC2(CC2)C(=O)N1CC1CN(C(=O)C2(C)CC2)C1` [compound 340, 5-(4-(3-chloroquinolin-7-yl)-2-methylphenyl)-6-((1-(1-methylcyclopropanecarbonyl)azetidin-3-yl)methyl)-4,6-diazaspiro[2.4]hept-4-en-7-one], for which the IC50 with A2780 ovarian cells [1] was 6.03 µM; in test [2] it was 0.0288 µM; in the test with A2780 ovarian cells [3], 0.0155 µM; in test [4] it was 0.0933 µM; in test [5], 0.0182 µM; in test [6], 0.038 µM. In test [2], the inhibition at 10 µM was 101%.
For the molecule `O=C(C1CC1)N1CC[C@@H](CN2C(=O)C3(CC3)N=C2c2ccc(-c3ccc4[nH]ccc4c3)cn2)C1` [compound 341, (R)-5-(5-(1H-indol-5-yl)pyridin-2-yl)-6-((1-(cyclopropanecarbonyl)pyrrolidin-3-yl)methyl)-4,6-diazaspiro[2.4]hept-4-en-7-one], the IC50 in the test on A2780 ovarian cells [1] is above 6.17 µM; in test [2], 0.0646 µM; in the test on A2780 ovarian cells [3] it was 0.132 µM; in test [4], 0.525 µM; in test [5], 0.126 µM; in test [6] it was 0.209 µM. Besides, the inhibition at 10 µM in test [2] is 102%.
Take `O=C(C1CC1)N1CC[C@@H](CN2C(=O)C3(CC3)N=C2c2ccc(-c3ccc4sccc4c3)cn2)C1` [compound 342, (R)-5-(5-(benzo[b]thiophen-5-yl)pyridin-2-yl)-6-((1-(cyclopropanecarbonyl)pyrrolidin-3-yl)methyl)-4,6-diazaspiro[2.4]hept-4-en-7-one]: the IC50 in the test with A2780 ovarian cells [1] was above 10 µM; in test [2], 0.0692 µM; with A2780 ovarian cells [3] it was 1.86 µM; in test [4], 1.62 µM; in test [5], around 0.891 µM; in test [6], 0.195 µM. For the same molecule, the inhibition at 10 µM in test [2] was 106%.
As for `O=C(C1CC1)N1CC(CN2C(=O)C3(CC3)N=C2c2ccc(-c3ccc4cccnc4c3)cc2F)C1` [compound 346, 6-((1-(cyclopropanecarbonyl)azetidin-3-yl)methyl)-5-(2-fluoro-4-(quinolin-7-yl)phenyl)-4,6-diazaqspiro[2.4]hept-4-en-7-one], the IC50 in the test on A2780 ovarian cells [1] was above 10 µM; in test [2] it was 0.049 µM; with A2780 ovarian cells [3], around 0.017 µM; in test [4] it was 0.0437 µM; in test [5] it was 0.0224 µM; in test [6], 0.0537 µM. Moreover, the inhibition at 10 µM in test [2] was 97%.
On to `Cn1cnc2cc(-c3ccc(C4=NC5(CC5)C(=O)N4CC4CN(C(=O)C5CC5)C4)c(F)c3)ccc21` [compound 348, 6-((1-(cyclopropanecarbonyl)azetidin-3-yl)methyl)-5-(2-fluoro-4-(1-methyl-1H-benzo[d]imidazol-5-yl)phenyl)-4,6-diazaspiro[2.4]hept-4-en-7-one], for which the IC50 in the test with A2780 ovarian cells [1] was above 10 µM; in test [2], 0.0631 µM; in the test with A2780 ovarian cells [3] it was 0.0288 µM; in test [4] it was 0.282 µM; in test [5] it was 0.0407 µM; in test [6] it was 0.0871 µM. In test [2], the inhibition at 10 µM was found to be 96%.
With `O=C(C1CC1)N1CC(CN2C(=O)C3(CC3)N=C2c2ccc(-c3ccc4cc(F)ccc4c3)cc2F)C1` [compound 349, 6-((1-(cyclopropanecarbonyl)azetidin-3-yl)methyl)-5-(2-fluoro-4-(6-fluoronaphthalen-2-yl)phenyl)-4,6-diazaspiro[2.4]hept-4-en-7-one], the IC50 with A2780 ovarian cells [1] was above 10 µM; in test [2], 0.0166 µM; with A2780 ovarian cells [3], around 0.0309 µM; in test [4], 0.138 µM; in test [5], 0.0339 µM; in test [6], 0.0589 µM. The inhibition at 10 µM in test [2] was 102%.
`O=C(C1CC1)N1CC(CN2C(=O)C3(CC3)N=C2c2ccc(-c3ccc4cccc(F)c4c3)cc2F)C1` [compound 350, 6-((1-(cyclopropanecarbonyl)azetidin-3-yl)methyl)-5-(2-fluoro-4-(8-fluoronaphthalen-2-yl)phenyl)-4,6-diazaspiro[2.4]hept-4-en-7-one]: the IC50 in the test on A2780 ovarian cells [1] is above 10 µM; in test [2] it was 0.0151 µM; with A2780 ovarian cells [3], around 0.0282 µM; in test [4], 0.0813 µM; in test [5], 0.0224 µM; in test [6], 0.055 µM. Also, the inhibition at 10 µM in test [2] came out at 99%.
As for `COc1ccc2cc(-c3ccc(C4=NC5(CC5)C(=O)N4CC4CN(C(=O)C5CC5)C4)c(F)c3)ccc2c1` [compound 351, 6-((1-(cyclopropanecarbonyl)azetidin-3-yl)methyl)-5-(2-fluoro-4-(6-methoxynaphthalen-2-yl)phenyl)-4,6-diazaspiro[2.4]hept-4-en-7-one], the IC50 with A2780 ovarian cells [1] was 8.51 µM; in test [2], 0.0741 µM; in the test with A2780 ovarian cells [3], 0.0282 µM; in test [4] it was 0.0575 µM; in test [5], 0.0138 µM; in test [6], 0.0617 µM. Moreover, the inhibition at 10 µM in test [2] stood at 95%.
As for `Cc1cc2cc(-c3ccc(C4=NC5(CC5)C(=O)N4CC4CN(C(=O)C5(C)CC5)C4)c(F)c3)ccc2s1` [compound 352, 5-(2-fluoro-4-(2-methylbenzo[b]thiophen-5-yl)phenyl)-6-((1-(1-methylcyclopropanecarbonyl)azetidin-3-yl)methyl)-4,6-diazaspiro[2.4]hept-4-en-7-one], the IC50 in the test with A2780 ovarian cells [1] was 3.02 µM; in test [2], 0.0741 µM; in the test with A2780 ovarian cells [3] it was around 0.123 µM; in test [4] it was 0.562 µM; in test [5] it was 0.162 µM; in test [6], 0.0933 µM. The inhibition at 10 µM in test [2] stood at 94%.
On to `Cc1cc2cc(-c3ccc(C4=NC5(CC5)C(=O)N4CC4CN(C(=O)C5CC5)C4)c(F)c3)ccc2o1` [compound 353, 6-((1-(cyclopropanecarbonyl)azetidin-3-yl)methyl)-5-(2-fluoro-4-(2-methylbenzofuran-5-yl)phenyl)-4,6-diazaspiro[2.4]hept-4-en-7-one], for which the IC50 in the test with A2780 ovarian cells [1] was 6.03 µM; in test [2] it was 0.055 µM; in the test on A2780 ovarian cells [3], 0.245 µM; in test [4] it was 1.15 µM; in test [5] it was 0.437 µM; in test [6] it was 0.107 µM. Also, in test [2], the inhibition at 10 µM stood at 101%.
For the molecule `Cc1cc2cc(-c3ccc(C4=NC5(CC5)C(=O)N4C[C@@H]4CCN(C(=O)C5(O)CC5)C4)c(F)c3)ccc2s1` [compound 354, (R)-5-(2-fluoro-4-(2-methylbenzo[b]thiophen-5-yl)phenyl)-6-((1-(1-hydroxycyclopropanecarbonyl)pyrrolidin-3-yl)methyl)-4,6-diazaspiro[2.4]hept-4-en-7-one], the IC50 in the test with A2780 ovarian cells [1] is above 10 µM; in test [2], 0.0501 µM; in the test on A2780 ovarian cells [3], 0.0309 µM; in test [4], 0.245 µM; in test [5] it was 0.0355 µM; in test [6], 0.112 µM. Moreover, in test [2], the inhibition at 10 µM turned out to be 100%.
In the case of `Cc1cc2cc(-c3ccc(C4=NC5(CC5)C(=O)N4C[C@@H]4CCN(C(=O)C5(O)CC5)C4)c(F)c3)ccc2o1` [compound 355, (R)-5-(2-fluoro-4-(2-methylbenzofuran-5-yl)phenyl)-6-((1-(1-hydroxycyclopropanecarbonyl)pyrrolidin-3-yl)methyl)-4,6-diazaspiro[2.4]hept-4-en-7-one], the IC50 with A2780 ovarian cells [1] is above 10 µM; in test [2], 0.0302 µM; with A2780 ovarian cells [3] it was 0.0302 µM; in test [4], 0.575 µM; in test [5], 0.0589 µM; in test [6] it was 0.0427 µM. For the same molecule, in test [2], the inhibition at 10 µM was 96%.
For the molecule `Cc1nc2cc(-c3ccc(C4=NC5(CC5)C(=O)N4CC4CN(C(=O)C5CC5)C4)c(F)c3)ccc2s1` [compound 356, 6-((1-(cyclopropanecarbonyl)azetidin-3-yl)methyl)-5-(2-fluoro-4-(2-methylbenzo[d]thiazol-5-yl)phenyl)-4,6-diazaspiro[2.4]hept-4-en-7-one], the IC50 in the test with A2780 ovarian cells [1] is above 10 µM; in test [2], 0.102 µM; in the test on A2780 ovarian cells [3], around 0.162 µM; in test [4] it was 1.48 µM; in test [5], around 0.324 µM; in test [6] it was 0.479 µM. In addition, in test [2], the inhibition at 10 µM turned out to be 99%.
Consider `Cn1ncc2cc(-c3ccc(C4=NC5(CC5)C(=O)N4CC4CN(C(=O)C5(C)CC5)C4)c(F)c3)ccc21` [compound 357, 5-(2-fluoro-4-(1-methyl-1H-indaozl-5-yl)phenyl)-6-((1-(1-methylcyclopropanecarbonyl)azetidin-3-yl)methyl)-4,6-diazaspiro[2.4]hept-4-en-7-one], for which the IC50 in the test on A2780 ovarian cells [1] is above 10 µM; in test [2], 0.0398 µM; with A2780 ovarian cells [3] it was 0.0224 µM; in test [4], 0.372 µM; in test [5], 0.0251 µM; in test [6], 0.0631 µM. For the same molecule, the inhibition at 10 µM in test [2] worked out at 97%.
